Data set [1] is described as follows: HLM stability (Low Activity, Alternative Method). The class given is in vitro ADME. Particulars: both sexes, human, liver microsomes, pH 7.4, Condition 1 column, values marked *: Low Activity, 0.50 mg protein/mL. The method, then: (§1) HLM Stability (Low Activity, Alternative Method). Pooled HLM from adult male and female donors (Corning 452117) were used. Microsomal incubations were carried out in multi-well plates. Liver microsomal incubation medium consisted of PBS (100 mM, pH 7.4), MgCl2 (1 mM), and NADPH (1 mM), with 0.50 mg of liver microsomal protein per mL. Control incubations were performed by replacing the NADPH-cofactor system with PBS. Test compounds (1 μM, final solvent concentration 1.0%) were incubated with microsomes at 37° C. with constant shaking. Six time points over 60 minutes were analyzed, with 60 μL aliquots of the reaction mixture being drawn at each time point. The reaction aliquots were stopped by adding 180 μL of cold (4° C.) acetonitrile containing 200 ng/mL tolbutamide and 200 ng/mL labetalol as internal standards (IS), followed by shaking for 10 minutes, and then protein sedimentation by centrifugation at 4000 rpm for 20 minutes at 4° C. Supernatant samples (80 μL) were diluted with water (240 μL) and analyzed for parent compound remaining using a fit-for-purpose liquid chromatography-tandem mass spectrometry (LC-MS/MS) method.
(§2) Data Analysis. The elimination constant (kel), half-life (t1/2) and intrinsic clearance (Clint) were determined in a plot of […] versus time, using linear regression analysis.
On the technique in general: Microsomes from liver hold many membrane-bound enzymes, among them those of drug oxidation.

Data set [2] is described as follows: MLM stability (Low Activity). The class given is in vitro ADME, CD-1 mice. Particulars: male, CD-1, mouse, liver microsomes, pH 7.4, Condition 1 (Low Activity), 0.50 mg protein/mL. The method, then:
as §1, with “MLM” for “HLM”, “Activity).” for “Activity, Alternative Method).”, “from” for “from adult”, “CD-1 mice (XenoTech M1000)” for “and female donors (Corning 452117)”
as §2

Data set [3] is described as follows: RLM stability (Low Activity). The class given is in vitro ADME, Sprague Dawley rats. Conditions: male, Sprague Dawley, rat, liver microsomes, pH 7.4, Condition 1 (Low Activity), 0.50 mg protein/mL. The method, then: as §1, with “RLM” for “HLM”, “Activity).” for “Activity, Alternative Method).”, “from” for “from adult”, “Sprague Dawley rats (XenoTech R1000)” for “and female donors (Corning 452117)”
as §2

Data set [4] deals with MK-801 binding site of the N-methyl-D-aspartate receptor (NMDAR). In words: NMDAR radioligand binding with [3H]MK-801, Method B. Set-up: species or system Sprague Dawley rat. Particulars: MK-801 site, Method B, male Sprague Dawley rat cortex, 5.0 nM [3H]MK-801; read-out: NMDAR Ki ± SEM. As to the method: Radioligand Binding—Method B. Affinity of the test compounds for NMDAR was determined in radioligand binding experiments with [^3H]MK-801 by WuXi AppTec (Hong Kong) Limited, under the conditions described in Table 13.

For data set [5], the target named is T1, serotonin transporter (SERT) (Homo sapiens, UniProt P31645).
T1 construct: expressed in transfected cells; host or cells: HEK293
The data set can be described thus: Fluorescent substrate uptake inhibition, SERT. The data set is classed as cell-based. Conditions: for inhibition at 10 µM: HEK293 cells expressing SERT. As to the method: (§3) Uptake Inhibition. The ability of test compounds to block monoamine uptake by SERT, NET, DAT, and VMAT2 was determined using the Neurotransmitter Transporter Uptake Assay Kit manufactured by Molecular Devices (Cat #R8173). Briefly, stably transfected cells expressing the MAT of interest (HEK293 cells for SERT and NET; CHO cells for DAT) were grown and plated into 384-well plates at a concentration of 20,000 cells per well. Plates were then incubated for 16-20 h at 37° C. and 5% CO2. The medium was then aspirated and replaced with 25 μL of assay buffer (20 mM HEPES in HBSS, containing 0.1% BSA) containing the test compounds at the appropriate concentrations. Plates were then centrifuged at 300 rpm for 15 s and then incubated at 37° C. for 30 minutes. At this time, 25 μL of the proprietary fluorescent dye solution was added, the plates were incubated at 37° C. for 60 minutes, and then fluorescence was quantified on a plate reader (excitation wavelength=440 nm, emission wavelength=520 nm). The proprietary dye solution contains a mixture of 1) a fluorescent dye that mimics the endogenous substrates of MATs and is thereby actively transported to the intracellular compartment in the absence of an inhibitor and 2) a masking dye that inhibits the fluorescence of dye 1 in the extracellular compartment. Therefore, the overall fluorescence of the system increases as the fluorescent dye is transported into the cells.

Data set [6] deals with T2, norepinephrine transporter (NET) (Homo sapiens, UniProt P23975).
T2 construct: expressed in transfected cells; host or cells: HEK293
The data set can be described thus: Fluorescent substrate uptake inhibition, NET. The class given is cell-based. Particulars: for inhibition at 10 µM: HEK293 cells expressing NET. As to the method:
as §3

For data set [7], the target named is T3, dopamine transporter (DAT) (Homo sapiens, UniProt Q01959).
T3 construct: expressed in transfected cells; host or cells: CHO (uptake)
The data set can be described thus: Fluorescent substrate uptake inhibition, DAT. The class given is cell-based. Particulars: for inhibition at 10 µM: CHO cells expressing DAT. The method, then: as §3

For data set [8], the target named is T4, vesicular monoamine transporter 2 (VMAT2) (Homo sapiens, UniProt Q05940).
T4 construct: expressed in transfected cells
The data set can be described thus: Fluorescent substrate uptake inhibition, VMAT2. The class given is cell-based. Particulars: for inhibition at 10 µM: transfected cells. As to the method:
as §3

pIC50, pKi: −log10 of the molar value.

T2 sequence (P23975 whole entry, species assumed): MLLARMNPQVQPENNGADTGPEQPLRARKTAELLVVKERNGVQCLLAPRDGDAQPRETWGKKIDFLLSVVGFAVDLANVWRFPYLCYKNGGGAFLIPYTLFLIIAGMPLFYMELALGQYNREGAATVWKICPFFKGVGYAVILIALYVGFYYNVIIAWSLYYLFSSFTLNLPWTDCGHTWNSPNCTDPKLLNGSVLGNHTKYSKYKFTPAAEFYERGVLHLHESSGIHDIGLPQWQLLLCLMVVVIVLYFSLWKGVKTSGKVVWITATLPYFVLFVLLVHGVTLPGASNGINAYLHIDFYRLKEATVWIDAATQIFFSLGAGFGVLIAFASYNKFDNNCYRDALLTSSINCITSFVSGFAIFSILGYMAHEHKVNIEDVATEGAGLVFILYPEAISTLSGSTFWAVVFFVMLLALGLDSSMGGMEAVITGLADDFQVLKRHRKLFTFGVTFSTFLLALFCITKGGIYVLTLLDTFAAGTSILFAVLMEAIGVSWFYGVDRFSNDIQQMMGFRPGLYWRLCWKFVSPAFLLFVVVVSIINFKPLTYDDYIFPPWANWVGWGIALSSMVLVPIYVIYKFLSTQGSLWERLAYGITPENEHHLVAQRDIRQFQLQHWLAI
T1 sequence (P31645 whole entry, species assumed): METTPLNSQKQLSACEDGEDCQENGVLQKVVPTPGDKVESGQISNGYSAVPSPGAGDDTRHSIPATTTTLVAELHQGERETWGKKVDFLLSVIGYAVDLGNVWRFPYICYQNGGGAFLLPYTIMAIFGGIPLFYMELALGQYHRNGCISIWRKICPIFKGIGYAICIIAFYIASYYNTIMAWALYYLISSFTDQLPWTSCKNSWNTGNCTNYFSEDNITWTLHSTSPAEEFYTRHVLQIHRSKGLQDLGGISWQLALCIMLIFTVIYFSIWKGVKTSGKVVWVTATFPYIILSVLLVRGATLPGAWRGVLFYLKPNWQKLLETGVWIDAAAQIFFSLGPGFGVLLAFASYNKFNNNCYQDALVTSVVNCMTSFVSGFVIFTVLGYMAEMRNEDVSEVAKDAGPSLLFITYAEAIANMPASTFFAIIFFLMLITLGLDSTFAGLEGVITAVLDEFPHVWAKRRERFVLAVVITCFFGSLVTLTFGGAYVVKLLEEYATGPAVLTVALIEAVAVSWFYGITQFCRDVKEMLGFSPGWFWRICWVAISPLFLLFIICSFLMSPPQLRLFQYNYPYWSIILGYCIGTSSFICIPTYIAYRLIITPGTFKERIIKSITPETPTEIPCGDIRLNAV
T4 sequence (Q05940 whole entry, species assumed): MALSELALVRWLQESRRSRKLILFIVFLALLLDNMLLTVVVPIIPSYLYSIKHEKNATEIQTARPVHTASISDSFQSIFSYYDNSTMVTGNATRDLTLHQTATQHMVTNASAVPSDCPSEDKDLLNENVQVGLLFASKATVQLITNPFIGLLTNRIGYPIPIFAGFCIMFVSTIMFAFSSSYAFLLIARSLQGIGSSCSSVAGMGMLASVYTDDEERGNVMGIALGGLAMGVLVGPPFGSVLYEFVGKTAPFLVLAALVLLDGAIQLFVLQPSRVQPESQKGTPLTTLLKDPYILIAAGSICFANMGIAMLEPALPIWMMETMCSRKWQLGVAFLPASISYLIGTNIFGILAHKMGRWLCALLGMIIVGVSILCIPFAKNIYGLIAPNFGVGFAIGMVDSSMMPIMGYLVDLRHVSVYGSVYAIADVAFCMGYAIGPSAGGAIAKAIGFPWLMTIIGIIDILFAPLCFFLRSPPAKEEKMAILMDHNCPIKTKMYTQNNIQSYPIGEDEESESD
T3 sequence (Q01959 whole entry, species assumed): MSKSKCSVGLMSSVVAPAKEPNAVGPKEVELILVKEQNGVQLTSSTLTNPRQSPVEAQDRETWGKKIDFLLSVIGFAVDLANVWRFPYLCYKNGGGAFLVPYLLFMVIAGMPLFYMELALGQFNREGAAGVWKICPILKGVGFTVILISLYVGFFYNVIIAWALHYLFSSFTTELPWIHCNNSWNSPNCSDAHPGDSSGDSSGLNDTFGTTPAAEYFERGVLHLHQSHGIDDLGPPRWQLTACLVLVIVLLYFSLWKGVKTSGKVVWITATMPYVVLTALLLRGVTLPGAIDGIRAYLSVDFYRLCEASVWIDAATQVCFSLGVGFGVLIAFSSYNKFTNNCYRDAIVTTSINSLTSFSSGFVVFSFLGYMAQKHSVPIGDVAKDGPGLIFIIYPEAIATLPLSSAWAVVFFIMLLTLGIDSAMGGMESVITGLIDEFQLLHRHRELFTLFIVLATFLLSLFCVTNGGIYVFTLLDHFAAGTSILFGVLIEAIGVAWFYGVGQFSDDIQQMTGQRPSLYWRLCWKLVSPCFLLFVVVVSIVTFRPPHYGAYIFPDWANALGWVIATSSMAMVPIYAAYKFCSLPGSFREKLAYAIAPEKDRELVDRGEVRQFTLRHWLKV

One may read the half-life as the time in which the quantity being followed falls by half. High values mean slow decline, low ones rapid decline. A word on the microsomal CLint: it is the rate of metabolic loss divided by the concentration. Broadly, the pKi is the Ki on a negative log10 scale, so that one unit is a factor of ten. The term inhibition denotes the relative decrease from the control value, in per cent. As for `CNC1(c2cccc(C)c2)CCCCC1=O` (racemic) [Compound 23rac, 2-(methylamino)-2-(m-tolyl)cyclohexan-1-one], the half-life at 1 μM worked out at 133 min in data set [1], 52.7 min in data set [2] and 3.6 min in data set [3]. Further, the microsomal CLint at 1 μM was determined as 10.4 µL/min/mg in data set [1], 26.3 µL/min/mg in data set [2] and 390 µL/min/mg in data set [3]. Moreover, in data set [4], the pKi was 5.34. For the same compound, the inhibition at 10 µM in data set [5] is -1%; in data set [6] it was 8%; in data set [7] it was 8.5%; in data set [8] it was 16%.
As to `O=C1CCCC[C@]1(c1ccccc1)N1CCOCC1` [Compound 31R, (R)-2-morpholino-2-phenylcyclohexan-1-one], the half-life at 1 μM in data set [1] was 45.7 min; in data set [2], 11.2 min; in data set [3], 6.8 min. For the same compound, the microsomal CLint at 1 μM in data set [1] came to 30.3 µL/min/mg; in data set [2], 124 µL/min/mg; in data set [3] it was 204 µL/min/mg. In addition, in data set [4], the pKi was under 4.64. Besides, the inhibition at 10 µM in data set [5] was -1.2%; in data set [6], 1.3%; in data set [7] it was 9.8%; in data set [8], -3.4%.
With `Cc1cccc(C2(N)CCCCC2=O)c1` (racemic) [Compound 118rac, 2-amino-2-(m-tolyl)cyclohexan-1-one], the half-life at 1 μM is over 145 min in data set [1], 84.4 min in data set [2] and 7.2 min in data set [3]. The figures for the microsomal CLint at 1 μM in data set [1], in data set [2] and in data set [3] were under 9.6 µL/min/mg, 16.4 µL/min/mg and 192 µL/min/mg, respectively. Moreover, the pKi in data set [4] was 5.35. Moreover, the inhibition at 10 µM was found to be 16.9% in data set [5], 19.5% in data set [6], 23.8% in data set [7] and 36.6% in data set [8].
As for `CC1CCN1C1(c2ccccc2)CCCCC1=O` (stereo not drawn) [Compound 128mix, 2-(2-methylazetidin-1-yl)-2-phenylcyclohexan-1-one], the half-life at 1 μM in data set [1] is 87 min; in data set [2] it was 20.3 min; in data set [3], 27.4 min. Moreover, the microsomal CLint at 1 μM came to 15.9 µL/min/mg in data set [1], 68.3 µL/min/mg in data set [2] and 50.6 µL/min/mg in data set [3]. Also, the pKi in data set [4] is 5.72. In addition, the inhibition at 10 µM in data set [5] was 81.9%; in data set [6], -2.9%; in data set [7], 19.2%; in data set [8], 23.4%.
As to `NC1(c2ccc(F)cc2)CCCCC1=O` (racemic) [Compound 117rac, 2-amino-2-(4-fluorophenyl)cyclohexan-1-one], the half-life at 1 μM in data set [1], in data set [2] and in data set [3] was over 145 min each time. The microsomal CLint at 1 μM in data set [1], in data set [2] and in data set [3] was under 9.6 µL/min/mg each time. The pKi in data set [4] is 5.08. Also, the inhibition at 10 µM is -0.91% in data set [5], 5% in data set [6], 6.8% in data set [7] and 17.1% in data set [8].
Regarding `CC1CN(C2(c3ccccc3)CCCCC2=O)C1` (racemic) [Compound 129rac, 2-(3-methylazetidin-1-yl)-2-phenyl-cyclohexan-1-one], the half-life at 1 μM in data set [1] came out at 134 min; in data set [2], 9.3 min; in data set [3], 24.1 min. Besides, the microsomal CLint at 1 μM in data set [1] was 10.4 µL/min/mg; in data set [2], 149 µL/min/mg; in data set [3], 57.5 µL/min/mg. Besides, the pKi in data set [4] was 6.28. The inhibition at 10 µM in data set [5] stood at 28%; in data set [6], 10.6%; in data set [7], 35.8%; in data set [8], 31.9%.
For `COCCN[C@@]1(c2ccccc2)CCCCC1=O` [Compound 29R, (R)-2-((2-methoxyethyl)amino)-2-phenylcyclohexan-1-one], the values for the half-life at 1 μM in data set [1], in data set [2] and in data set [3] were over 145 min, 30.1 min and 32.2 min, respectively. The microsomal CLint at 1 μM in data set [1] is under 9.6 µL/min/mg; in data set [2] it was 46.1 µL/min/mg; in data set [3], 43 µL/min/mg. The pKi in data set [4] is under 4.64. The inhibition at 10 µM in data set [5] was 19.6%; in data set [6], -16%; in data set [7] it was -7.1%; in data set [8], -31.9%.
As a reminder, the pIC50 is −log10 of the IC50, conventionally taken in molar units. In the case of `O=C1CCCC[C@]1(c1ccccc1)N1CCCC1` [Compound 27R, (R)-2-phenyl-2-(pyrrolidin-1-yl)cyclohexan-1-one], the half-life at 1 μM in data set [1] was over 145 min; in data set [2] it was 40.4 min; in data set [3] it was 55.9 min. Further, the microsomal CLint at 1 μM was under 9.6 µL/min/mg in data set [1], 34.3 µL/min/mg in data set [2] and 24.8 µL/min/mg in data set [3]. Also, the pKi in data set [4] is 5.51. Besides, the pIC50 in data set [5] is 5.68; in data set [6] it was 4.76; in data set [7] it was 4.68; in data set [8], 4.74.
For the compound `O=C1CCCC[C@@]1(c1ccccc1)N1CCCC1` [Compound 27S, (S)-2-phenyl-2-(pyrrolidin-1-yl)cyclohexan-1-one], the half-life at 1 μM was over 145 min in data set [1], 41 min in data set [2] and 53.7 min in data set [3]. Besides, the values for the microsomal CLint at 1 μM in data set [1], in data set [2] and in data set [3] were under 9.6 µL/min/mg, 33.8 µL/min/mg and 25.8 µL/min/mg, respectively. Besides, the pKi in data set [4] is 5.96. For the same compound, the pIC50 in data set [5] is 7.39; in data set [6], 5.07; in data set [7] it was 4.96; in data set [8], 4.71.

(Values after US11344510B2, “Arylcyclohexylamine derivatives and their use in the treatment of psychiatric disorders” (Gilgamesh Pharmaceuticals, Inc., priority 2019, dated 2022).)
